# From patent US8093028B2, “Engineered glycosyltransferases with expanded substrate specificity” (Wisconsin Alumni Research Foundation, priority 2007, dated 2012)
# Columns and labels:
# Type in all cases: biochemical
# OleD A242V [1] = molecular target: T1, OleD A242V (Streptomyces antibioticus, UniProt Q53685, A242V/P55A/R82V/R83E/T84P); assay: Rate of glucoside formation with acceptors (RP-HPLC); details: 200 μM acceptor, 1 mM UDPG
# T1 construct: made in house; host or cells: E. coli BL21(DE3)pLysS (error-prone PCR clone in pET28a)
# Experimental: (§1) Enzyme assays for the determination of glycosyl transfer rate to FIG. 1: 4, Table 1: 27-32 were carried out in a total volume of 500 μl 50 mM Tris-HCl (pH8.0) containing 5 mM MgCl2, 200 μM acceptor, 1 mM UDPG, and 50 μg pure enzyme. Aliquots (100 μl) were removed between 0 and 30 min, at which time product formation was still linear with respect to time, and quenched with 90 μl of an 8:1 mixture of ice-cold MeOH/HCl, and centrifuged at 14,000 rpm for 10 min. Supernatants were analyzed by analytical reverse-phase HPLC with a 250 mm×4.6 mm Gemini […] C18 column (Phenomenex, Torrance, Calif.) using a gradient of 10-90% CH3CN in 0.1% trifluoroacetic acid (TFA)/H2O in 20 min at 1 ml/min, with detection at 254 nm. HPLC peak areas were integrated, and the product concentration calculated as a percent of the total peak area. Product identity was confirmed by co-elution with a commercial standard when available and, in all cases, by LC-MS (FIG. 8).
# (§2) Reaction conditions for assay of macrolide glycosylation were identical to that for FIG. 1: 1, except that typically, less enzyme was used (1-10 μg) and reactions were quenched with an equal volume of ice-cold MeOH. Centrifuged reaction mixtures were analyzed by analytical reverse-phase HPLC with a Gemini 5μ C18 column (Phenomenex) using a gradient of 0-90% CH3CN in 50 mM NH3COOH over 30 min at 1 ml/min. Products and acceptor macrolide were detected by evaporative light scattering detection (ELSD) using a drift tube temperature of 105° C. and a nitrogen flow of 2.5 ml/min. All products were characterized by APCI LC-MS on an Agilent 1100 Series LC/MSD quadrapole mass spectrometer connected to a UV detector. Quenched reaction mixtures were analyzed by reverse-phase HPLC with a 10 mm×4.6 mm Zorbax Extend 5μ C18 Analytical Guard Column (Agilent Technologies) using an isocratic gradient of 80% MeOH in 2 min at 1 ml/min, with detection at 254 nm.
# (§3) Enzyme reactions were carried out in a total volume of 500 μl 50 mM Tris-HCl (pH8.0) containing 5 mM MgCl2, 200 μM acceptor, 1 mM UDPG, and 50 μg pure enzyme. Aliquots (100 μl) were removed between 0 and 30 min, and quenched with 90 μl of an 8:1 mixture of ice-cold MeOH/HCl for activity towards FIG. 1: 4, Table 1: 27-32, or with 90 μl of ice-cold MeOH for activity towards FIG. 1: 1, and the samples centrifuged at 14,000 rpm for 10 min.
# (§4) For determination of activity to FIG. 1: 4, Table 1: 27-32, supernatants were analyzed by analytical reverse-phase HPLC with a Gemini 5μ C18 column (Phenomenex) using a gradient of 10-90% CH3CN in 0.1% trifluoroacetic acid (TFA)/H2O in 20 min, with detection at 254 nm. HPLC peak areas were integrated, and the product concentration calculated as a percent of the total peak area. All products were characterized by LC-MS. Mass spectra were obtained using electrospray ionization on an Agilent 1100 HPLC-MSD SL quadrapole mass spectrometer connected to a UV/Vis diode array detector. For LC-MS analysis, quenched reaction mixtures (see below) were analyzed by analytical reverse-phase HPLC with a 250 mm×4.6 mm Gemini 5μ C18 column (Phenomenex, Torrance, Calif.) using a gradient of 10-90% CH3CN in 0.1% formic acid/H2O in 20 min at 1 ml/min, with detection at 254 nm.
# as §2, with “For determination” for “Reaction conditions for assay”, “activity toward” for “macrolide glycosylation were identical to that for”, “centrifuged” for “except that typically, less enzyme was used (1-10 μg) and reactions were quenched with an equal volume of ice-cold MeOH. Centrifuged”, “Compounds FIG. 1: 1” for “Products”, “3” for “acceptor macrolide”
# OleD P67T [2] = molecular target: T2, OleD P67T (Streptomyces antibioticus, UniProt Q53685, P55A/P67T/R82V/R83E/T84P); assay: as above; details: 200 μM acceptor, 1 mM UDPG
# T2 construct: made in house; host or cells: E. coli (site-directed mutant of pET28/OleD)
# Experimental: as §1, §2, §3, §4
# as §2, with “For determination” for “Reaction conditions for assay”, “activity toward” for “macrolide glycosylation were identical to that for”, “centrifuged” for “except that typically, less enzyme was used (1-10 μg) and reactions were quenched with an equal volume of ice-cold MeOH. Centrifuged”, “Compounds FIG. 1: 1” for “Products”, “3” for “acceptor macrolide”
# OleD S132F [3] = molecular target: T3, OleD S132F (Streptomyces antibioticus, UniProt Q53685, P55A/R82V/R83E/S132F/T84P); assay: as above; details: for Rate of glucoside formation, S132F: 200 μM acceptor, 1 mM UDPG
# T3 construct: made in house; host or cells: E. coli (site-directed mutant of pET28/OleD)
# Experimental: as §1, §2, §3, §4
# as §2, with “For determination” for “Reaction conditions for assay”, “activity toward” for “macrolide glycosylation were identical to that for”, “centrifuged” for “except that typically, less enzyme was used (1-10 μg) and reactions were quenched with an equal volume of ice-cold MeOH. Centrifuged”, “Compounds FIG. 1: 1” for “Products”, “3” for “acceptor macrolide”
# WT OleD = molecular target: T4, WT OleD (Streptomyces antibioticus, UniProt Q53685, P55A/R82V/R83E/T84P); assay: as above; details: 200 μM acceptor, 1 mM UDPG
# T4 construct: made in house; host or cells: E. coli BL21(DE3)pLysS, plasmid pET28/OleD
# Experimental: as §1, §2, §3, §4
# as §2, with “For determination” for “Reaction conditions for assay”, “activity toward” for “macrolide glycosylation were identical to that for”, “centrifuged” for “except that typically, less enzyme was used (1-10 μg) and reactions were quenched with an equal volume of ice-cold MeOH. Centrifuged”, “Compounds FIG. 1: 1” for “Products”, “3” for “acceptor macrolide”
# OleD P67T/S132F/A242V [4] = molecular target: T5, OleD P67T/S132F/A242V (Streptomyces antibioticus, UniProt Q53685, A242V/P67T/S132F); assay: as above; details: for Rate of glucoside formation, P67T/S132F/A242V: 200 μM acceptor, 1 mM UDPG; for Fold-improvement compared to WT OleD: rate of P67T/S132F/A242V versus WT
# T5 construct: made in house; host or cells: E. coli (site-directed mutant of pET28/OleD)
# Experimental: as §1, with “8). […]” for “8).”
# as §3, §4
# as §2, with “For determination” for “Reaction conditions for assay”, “activity toward” for “macrolide glycosylation were identical to that for”, “centrifuged” for “except that typically, less enzyme was used (1-10 μg) and reactions were quenched with an equal volume of ice-cold MeOH. Centrifuged”, “Compounds FIG. 1: 1” for “Products”, “3” for “acceptor macrolide”
# OleD A242V [5] = molecular target: T1, OleD A242V; details: Table 3; 4-Me-umb (4) as acceptor, end point assay
# Experimental: (§5) Reactions were carried out as described above with the following exceptions. The total volume was 50 μl and the acceptor FIG. 1: 4 was at 50 μM and the NDP-sugar at ˜500 μM. The NDP-sugars were used directly from RmlA-catalyzed reactions. […] Reactions were incubated at 25° C. for 3 h.
# (§6) The total volume was 50 μl and the acceptor FIG. 1: 4 or FIG. 1: 1 was at 50 μM and the NDP-sugar at ˜500 μM. The NDP-sugars were used directly from RmlA-catalyzed reactions. […] Reactions were incubated at 25° C. for 3 h.
# (§7) For activity toward FIG. 1: 4, aliquots (25 μl) were quenched with 25 μl of an 8:1 mixture of ice-cold MeOH/HCl, and centrifuged at 14,000 rpm for 10 min. […] HPLC peak areas were integrated, and the product concentration calculated as a percent of the total peak area. All products were characterized by LC-MS. Mass spectra were obtained using electrospray ionization on an Agilent 1100 HPLC-MSD SL quadrapole mass spectrometer connected to a UV/Vis diode array detector.
# OleD P67T [6] = molecular target: T2, OleD P67T; details: Table 3; 4-Me-umb (4) as acceptor, end point assay
# Experimental: as §5, §6, §7
# OleD P67T/S132F/A242V [7] = molecular target: T5, OleD P67T/S132F/A242V; details: for Conversion rates (%), P67T/S132F/A242V: Table 3, 4-Me-umb (4) as acceptor, end point assay
# Experimental: as §5, §6, §7
# OleD S132F [8] = molecular target: T3, OleD S132F; details: Table 3; 4-Me-umb (4) as acceptor, end point assay
# Experimental: as §5, §6, §7
Compound,"Rate of glucoside formation, A242V (OleD A242V [1])","Rate of glucoside formation, P67T (OleD P67T [2])","Rate of glucoside formation, S132F (OleD S132F [3])","Rate of glucoside formation, WT (WT OleD)","Rate of glucoside formation, WT (WT OleD; listed as Table 1: 28)","Rate of glucoside formation, P67T/S132F/A242V (OleD P67T/S132F/A242V [4])",Fold-improvement compared to WT OleD (OleD P67T/S132F/A242V [4]; UDPG donor) [fold],"Fold-improvement compared to WT OleD (OleD P67T/S132F/A242V [4]; UDPG donor, listed as Table 1: 27) [fold]","Conversion rates (%), A242V (OleD A242V [5]) [%]","Conversion rates (%), P67T (OleD P67T [6]) [%]","Conversion Rate (%), P67T/S132F/A242V (OleD P67T/S132F/A242V [7]; Table 2, acceptor 4 at 50 μM, NDP-sugar ~500 μM, 25° C., 3 h) [%]","Conversion rates (%), P67T/S132F/A242V (OleD P67T/S132F/A242V [7]) [%]","Conversion rates (%), S132F (OleD S132F [8]) [%]","activity, fold more than WT OleD (OleD S132F [3]; UDPG donor) [fold]","glucosylation rate, fold less than the WT enzyme (OleD P67T/S132F/A242V [4]; UDPG donor) [fold]"
"O=C(O)c1cc2ccc(O)cc2oc1=O [7-hydroxycoumarin-3-carboxylic acid (28), 7-hydroxycoumarin-3-carboxylic acid]",0.01 mmols/product formed/min/μg enzyme × 10^3,0.022 mmols/product formed/min/μg enzyme × 10^3,0.022 mmols/product formed/min/μg enzyme × 10^3,0.01 mmols/product formed/min/μg enzyme × 10^3,essentially non-detectable substrates,0.62 mmols/product formed/min/μg enzyme × 10^3,62,–,–,–,–,–,–,–,–
"O=C(O)Cc1cc(=O)oc2cc(O)ccc12 [7-hydroxycoumarin-4-acetic acid (27), 7-hydroxycoumarin-4-acetic acid]",0.16 mmols/product formed/min/μg enzyme × 10^3,0.22 mmols/product formed/min/μg enzyme × 10^3,0.08 mmols/product formed/min/μg enzyme × 10^3,essentially non-detectable substrates,–,3.6 mmols/product formed/min/μg enzyme × 10^3,>180,> 180,–,–,–,–,–,–,–
"O=c1ccn([C@@H]2O[C@H](COP(=O)(O)OP(=O)(O)O[C@H]3OC[C@@H](O)[C@H](O)[C@H]3O)[C@@H](O)[C@H]2O)c(=O)[nH]1 [UDP-xylose (7), UDP-xylose]",–,–,–,–,–,–,–,–,2,2,31,31,1.5,–,–
"O=c1c(-c2ccc(O)cc2)coc2cc(O)ccc12 [daidzein (31), daidzein]",8.5 mmols/product formed/min/μg enzyme × 10^3,16.0 mmols/product formed/min/μg enzyme × 10^3,5.5 mmols/product formed/min/μg enzyme × 10^3,4.2 mmols/product formed/min/μg enzyme × 10^3,–,24 mmols/product formed/min/μg enzyme × 10^3,5.7,–,–,–,–,–,–,–,–
"O=c1c(-c2ccc(O)cc2)coc2cc(O)cc(O)c12 [genistein (32), genistein]",14.1 mmols/product formed/min/μg enzyme × 10^3,28.8 mmols/product formed/min/μg enzyme × 10^3,8.8 mmols/product formed/min/μg enzyme × 10^3,3.4 mmols/product formed/min/μg enzyme × 10^3,–,26 mmols/product formed/min/μg enzyme × 10^3,7.7,–,–,–,–,–,–,–,–
"O=c1c(O)c(-c2ccc(O)cc2)oc2cc(O)cc(O)c12 [kaempferol (30), kaempferol]",15.3 mmols/product formed/min/μg enzyme × 10^3,99.9 mmols/product formed/min/μg enzyme × 10^3,23 mmols/product formed/min/μg enzyme × 10^3,13.2 mmols/product formed/min/μg enzyme × 10^3,–,28 mmols/product formed/min/μg enzyme × 10^3,2.1,–,–,–,–,–,–,–,–
"CO[C@H]1C[C@H](O[C@H]2[C@H](C)[C@@H](O[C@@H]3O[C@H](C)C[C@H](N(C)C)[C@H]3O)[C@@H](C)C[C@@]3(CO3)C(=O)[C@H](C)[C@@H](O)[C@@H](C)[C@@H](C)OC(=O)[C@@H]2C)O[C@@H](C)[C@@H]1O [oleandomycin (1), oleandomycin]",70 mmols/product formed/min/μg enzyme × 10^3,20 mmols/product formed/min/μg enzyme × 10^3,1487 mmols/product formed/min/μg enzyme × 10^3,700 mmols/product formed/min/μg enzyme × 10^3,–,13 mmols/product formed/min/μg enzyme × 10^3,0.02,–,–,–,–,–,–,~2,~54
UDP-2-amino-glc [UDP-2-amino-glc (19)],–,–,–,–,–,–,–,–,–,–,–,24,–,–,–
